Data on three molecules can be found in patent publication US20260375094A1, “Disinfectant Compositions” (ARXADA, LLC, priority 2022, published 2026).

Format in all cases: cell-based
The subject of assay [1] is Pseudomonas aeruginosa (ATCC 15442). As to the kind of experiment: EN1276 suspension test, dirty condition, 5 minutes. Particulars: for Log Reduction: no polyethertriamine, with 5.00 disodium cocoamphodiproprionate, 15.00 isopropyl alcohol, 5 minutes. Here is the method:
In particular, varying amounts of para-chloro-metal-xylenol (PCMX) were combined and tested with and without different adjuvants of the present disclosure.
In this example, the same polyethertriamine described in Example No. 1 was used. The disodium cocoamphodiproprionate used was Amphoterge® K-2 obtained from Arxada AG. The methylglycinediacetic acid used was Trilon® M obtained from BASF Corporation.
In tables 9 and 10, antimicrobial efficacy was evaluated according to the EU Standard EN1276 method against Pseudomonas aeruginosa (ATCC 15442) for a contact time of 5 minutes in dirty condition. Test compounds were diluted in hardwater with a total hardness of 375 ppm as CaCo3 pursuant to the Organization for Economic Co-operation and Development (OECD) and used within 2 hours of preparation. The test inoculum was adjusted to the concentration of 1.5-5×10^8 colony forming units (CFU) in Tryptone Sodium Chloride buffer (TSC, 1.0 g tryptone, 8.5 g NaCl, 1 L H2O). For the challenge test, 1 ml of the test inocula was mixed with 1 ml of Bovine Serum Albumin (final concentration 3 g/L) and held for 2 minutes before it was exposed to 8 mL of test compound. The test suspension was then mixed and held for the contact time of 5 minutes at 20±1 °C. At the end of the exposure time, 1 ml of the test mixture was transferred to a tube containing 9 ml neutralizing solution and held for 5 minutes before it was serially diluted and plated onto TSA plates. The plates were incubated at 37 °C for 48 hours before the numbers of CFU per ml in the test suspensions relative to the controls were calculated. Test and control procedures were performed in duplicate and carried out in parallel with the neutralization validation controls, as described in the standard.

Assay [2] deals with Pseudomonas aeruginosa. Description: glass slide carrier spray disinfection test, Pseudomonas aeruginosa. The conditions noted are these: 75 ppm antimicrobial agent, no polyethertriamine; 10 minutes contact time. The method, then:
(§1) In this example, Pseudomonas aeruginosa or Staphylococcus aureus were dried on glass slides and then sprayed with disinfectant compositions prepared according to the present disclosure. The organism load on the slide was controlled between 5 and 6 log 10 (equals to 10^5 to 10^6 organisms). The spray bottle containing the disinfectant was placed 4 inches away from the carrier and five sprays were applied. After 10 minutes contact time, the carriers are aseptically transferred to 20 ml of letheen broth (neutralizer/growth media). These letheen broth tubes with the carriers are then incubated at 37±1 °C for 48 hours. After 48 hours, a cloudy letheen tube indicates growth or failure and a clear tube indicates no growth or pass.
(§2) The polyethertriamine used was JEFFAMINE T403 polyetheramine obtained from Huntsman Corporation of Houston, Texas.
(§3) In the example below, the alkyl dimethyl benzyl ammonium chloride contained a mixture of 50% by weight C14, 10% by weight C16, and 40% by weight C12 dimethyl benzyl ammonium chloride.
(§4) In the table below, PHMB stands for polyhexamethylene biguanide.

The test system of the next assay is Staphylococcus aureus. As to the kind of experiment: glass slide carrier spray disinfection test, Staphylococcus aureus. The conditions noted are these: 75 ppm antimicrobial agent, no polyethertriamine; 10 minutes contact time. The method, then:
as §1, §2, §3, §4

For assay [3], the system named is Pseudomonas aeruginosa. Description: modified EN 1040 suspension test, Pseudomonas aeruginosa. Particulars: 1.25 ppm antimicrobial agent, 60 seconds. The text has this: (§5) In particular, various antimicrobial agents and mixtures were combined and tested with and without the adjuvant of the present disclosure.
(§6) In this example, the same polyethertriamine described in Example No. 1 was used. In addition, the alkyl dimethyl benzyl ammonium chloride was the same mix as described in Example No. 1. The alkyl dimethyl ammonium chloride mix used in the samples below contained 40% by weight of octyl decyl dimethyl ammonium chloride, 16% by weight dioctyl dimethyl ammonium chloride, and 24% by weight of didecyl dimethyl ammonium chloride.
(§7) The modified EN 1040 suspension test was used to determine the efficacy of the test systems. The testing was performed for a contact time of 60 seconds in comparison to an identical composition not containing the adjuvant but containing the antimicrobial agent at the same concentration. Bacteria were stored at −80 °C using Microbank™ beads (Prolab diagnostics). Cultures were prepared in 250 mL baffled shake flasks with 25 mL of Tryptic Soy Broth (TSB) using one bead. After 18+/−8 hours incubation at 37 °C and 150 rpm, the inocula are prepared for the test.
(§8) The inocula were prepared by diluting the bacteria to 2.5×10^6 CFU/mL in phosphate buffered saline (PBS). Test compounds are prepared in DI water. Three levels of each test compound were prepared by serial two-fold dilution in the same hardwater. For each biological repetition, the test compounds were tested at 3 levels in quadruplicate with one quadruplicate control with no test compound.
The varying compositions were then mixed with the inocula in an 80:20 (test composition: inocula) ratio. After 60 seconds, the test composition/inocula mixture was neutralized by a 10-fold dilution in Letheen broth. After neutralization of the test composition/inocula mixture, five more 10-fold dilutions were made. The six dilutions were incubated at 35 °C for 24 h+/−1 h. Neutralization was verified separately.
(§9) The average log reduction was calculated using the six dilutions.
Various different formulations were tested against Klebsiella pneumoniae and Pseudomonas aeruginosa. The antimicrobial concentrations were tested at 5 ppm, 2.5 ppm, and 1.25 ppm. The antimicrobial blends were mixed at the indicated ratios by weight percent. The formulations were tested with and without the polyethertriamine (PEA). The polyethertriamine was added at weight ratios of 20:1, 40:1, 80:1, and 200:1 with respect to the antimicrobial agent(s). The average log reduction was recorded in addition to the difference in log reduction between the formulation containing the polyethertriamine and the formulation not containing the polyethertriamine.

The test system of another assay is Klebsiella pneumoniae. Description: modified EN 1040 suspension test, Klebsiella pneumoniae. The conditions noted are these: 1.25 ppm antimicrobial agent, 60 seconds.
Description: as §5, §6, §7, §8
The varying compositions were then mixed with the inocula in an 80:20 (test composition: inocula) ratio. After 60 seconds, the test composition/inocula mixture was neutralized by a 10-fold dilution in Letheen broth. […]
as §9
Various different formulations were tested against Klebsiella pneumoniae and Pseudomonas aeruginosa. […] The average log reduction was recorded in addition to the difference in log reduction between the formulation containing the polyethertriamine and the formulation not containing the polyethertriamine.

As for `Cc1cc(O)cc(C)c1Cl` [Para-chloro-meta-xylenol, 4-chloro-3,5-dimethylphenol], the “Log Reduction” value in assay [1] (0.50% para-chloro-meta-xylenol, 1:5 dilution (1000 ppm)) is listed as 0.83 log; in assay [1] (1.00% para-chloro-meta-xylenol, 1:5 dilution (2000 ppm)), 2.56 log. For the same molecule, the “performance in presence of the adjuvants” value in assay [1] (Example No. 3) was “dramatically improved the performance”.

In the case of `N=C(NCCCCCCNC(=N)NC(=N)Nc1ccc(Cl)cc1)NC(=N)Nc1ccc(Cl)cc1` [Chlorohexidine], the “# Fails out of 10” value in the assay on Pseudomonas aeruginosa [2] and in the assay with Staphylococcus aureus was 10 out of 10 in each case.

Take `CCCCCCCCCC[N+](C)(C)CCCCCCCCCC.[Cl-]` [didecyl dimethyl ammonium chloride]: the “# Fails out of 10” value is on record as 9 out of 10 with Pseudomonas aeruginosa [2] and 1 out of 10 with Staphylococcus aureus. Besides, the “Average Log Kill” value was found to be 1.58 log in the assay on Pseudomonas aeruginosa [3] (0 ppm PEA); 2.50 log with Pseudomonas aeruginosa [3] (100 ppm PEA); 1.88 log in the assay on Pseudomonas aeruginosa [3] (250 ppm PEA); 0.46 log in the assay with Klebsiella pneumoniae (0 ppm PEA); 1.83 log with Klebsiella pneumoniae (250 ppm PEA). For the same molecule, the “Delta Log Kill” value in the assay with Pseudomonas aeruginosa [3] (100 ppm PEA vs 0) was 0.92 log; in the assay on Pseudomonas aeruginosa [3] (250 ppm PEA vs 0), 0.29 log; in the assay on Klebsiella pneumoniae (250 ppm PEA vs 0) it was 1.38 log.
